Assay results from US11231416B2, “Virus-like particle (VLP) based small molecule-protein interaction trap” (VIB VZW, priority 2015, dated 2022).

How the values were obtained:
ZNF827 = biological target: T1, ZNF827 (Homo sapiens, UniProt Q17R98); assay: Viral trapping in VLPs, MS analysis; format: binding; conditions: all proteins (incl. low confidence identifications)
T1 construct: endogenous in cells; host or cells: HEK293T

HTRA3 = conditions: all proteins (incl. low confidence identifications)
IGF1R = biological target: T2, IGF1R (Homo sapiens, UniProt P08069); assay: Viral trapping in VLPs, MS analysis; format: binding
T2 construct: endogenous in cells; host or cells: HEK293T

INSR = biological target: T3, INSR (Homo sapiens, UniProt P06213); assay: Viral trapping in VLPs, MS analysis; format: binding
T3 construct: endogenous in cells; host or cells: HEK293T

CTNNA2 = biological target: T4, CTNNA2 (Homo sapiens, UniProt P26232); assay: Viral trapping in VLPs, MS analysis; format: binding; conditions: all proteins (incl. low confidence identifications)
T4 construct: endogenous in cells; host or cells: HEK293T

APMAP = biological target: T5, APMAP (Homo sapiens, UniProt Q9HDC9); assay: Viral trapping in VLPs, MS analysis; format: binding; conditions: all proteins (incl. low confidence identifications)
T5 construct: endogenous in cells; host or cells: HEK293T

USP7 = biological target: T6, USP7 (Homo sapiens, UniProt Q93009); assay: Viral trapping in VLPs, MS analysis; format: binding; conditions: all proteins (incl. low confidence identifications)
T6 construct: endogenous in cells; host or cells: HEK293T

NT5C = biological target: T7, NT5C (Homo sapiens, UniProt Q8TCD5); assay: Viral trapping in VLPs, MS analysis; format: binding; conditions: all proteins (incl. low confidence identifications)
T7 construct: endogenous in cells; host or cells: HEK293T

GAK = biological target: T8, GAK (Homo sapiens, UniProt O14976); assay: Viral trapping in VLPs, MS analysis; format: binding; conditions: all proteins (incl. low confidence identifications)
T8 construct: endogenous in cells; host or cells: HEK293T

NQO2 = biological target: T9, NQO2 (Homo sapiens, UniProt P16083); assay: Viral trapping in VLPs, MS analysis; format: binding
T9 construct: endogenous in cells; host or cells: HEK293T

YIPF5 = biological target: T10, YIPF5 (Homo sapiens, UniProt Q969M3); assay: Viral trapping in VLPs, MS analysis; format: binding; conditions: all proteins (incl. low confidence identifications)
T10 construct: endogenous in cells; host or cells: HEK293T

MFI2 = biological target: T11, MFI2 (Homo sapiens, UniProt P08582); assay: Viral trapping in VLPs, MS analysis; format: binding; conditions: all proteins (incl. low confidence identifications)
T11 construct: endogenous in cells; host or cells: HEK293T

TMX1 = biological target: T12, TMX1 (Homo sapiens, UniProt Q9H3N1); assay: Viral trapping in VLPs, MS analysis; format: binding; conditions: all proteins (incl. low confidence identifications)
T12 construct: endogenous in cells; host or cells: HEK293T

MBTPS1 = biological target: T13, MBTPS1 (Homo sapiens, UniProt Q14703); assay: Viral trapping in VLPs, MS analysis; format: binding; conditions: all proteins (incl. low confidence identifications)
T13 construct: endogenous in cells; host or cells: HEK293T

PPM1L = biological target: T14, PPM1L (Homo sapiens, UniProt Q5SGD2); assay: Viral trapping in VLPs, MS analysis; format: binding; conditions: all proteins (incl. low confidence identifications)
T14 construct: endogenous in cells; host or cells: HEK293T

LMAN1 = biological target: T15, LMAN1 (Homo sapiens, UniProt P49257); assay: Viral trapping in VLPs, MS analysis; format: binding; conditions: all proteins (incl. low confidence identifications)
T15 construct: endogenous in cells; host or cells: HEK293T

FKBP3 = biological target: T16, FKBP3 (Homo sapiens, UniProt Q00688); assay: Viral trapping in VLPs, MS analysis; format: binding; conditions: all proteins (incl. low confidence identifications)
T16 construct: endogenous in cells; host or cells: HEK293T

NEK2 = biological target: T17, NEK2 (Homo sapiens, UniProt P51955); assay: Viral trapping in VLPs, MS analysis; format: binding; conditions: all proteins (incl. low confidence identifications)
T17 construct: endogenous in cells; host or cells: HEK293T

DYNC2H1 = biological target: T18, DYNC2H1 (Homo sapiens, UniProt Q8NCM8); assay: Viral trapping in VLPs, MS analysis; format: binding; conditions: all proteins (incl. low confidence identifications)
T18 construct: endogenous in cells; host or cells: HEK293T

TMEM30A = biological target: T19, TMEM30A (Homo sapiens, UniProt Q9NV96); assay: Viral trapping in VLPs, MS analysis; format: binding; conditions: all proteins (incl. low confidence identifications)
T19 construct: endogenous in cells; host or cells: HEK293T

CAMKV = biological target: T20, CAMKV (Homo sapiens, UniProt Q8NCB2); assay: Viral trapping in VLPs, MS analysis; format: binding; conditions: all proteins (incl. low confidence identifications)
T20 construct: endogenous in cells; host or cells: HEK293T

TMEM9 = biological target: T21, TMEM9 (Homo sapiens, UniProt Q9P0T7); assay: Viral trapping in VLPs, MS analysis; format: binding; conditions: all proteins (incl. low confidence identifications)
T21 construct: endogenous in cells; host or cells: HEK293T

RCL = biological target: T22, RCL (Homo sapiens, UniProt O43598); assay: Viral trapping in VLPs, MS analysis; format: binding
T22 construct: endogenous in cells; host or cells: HEK293T

BZW1 = biological target: T23, BZW1 (Homo sapiens, UniProt Q7L1Q6); assay: Viral trapping in VLPs, MS analysis; format: binding; conditions: all proteins (incl. low confidence identifications)
T23 construct: endogenous in cells; host or cells: HEK293T

MST1R = biological target: T24, MST1R (Homo sapiens, UniProt Q04912); assay: Viral trapping in VLPs, MS analysis; format: binding; conditions: all proteins (incl. low confidence identifications)
T24 construct: endogenous in cells; host or cells: HEK293T

GEMIN5 = biological target: T25, GEMIN5 (Homo sapiens, UniProt Q8TEQ6); assay: Viral trapping in VLPs, MS analysis; format: binding
T25 construct: endogenous in cells; host or cells: HEK293T

RPS6KA1 = biological target: T26, RPS6KA1 (Homo sapiens, UniProt Q15418); assay: Viral trapping in VLPs, MS analysis; format: binding; conditions: all proteins (incl. low confidence identifications)
T26 construct: endogenous in cells; host or cells: HEK293T

MYO1D = biological target: T27, MYO1D (Homo sapiens, UniProt O94832); assay: Viral trapping in VLPs, MS analysis; format: binding; conditions: all proteins (incl. low confidence identifications)
T27 construct: endogenous in cells; host or cells: HEK293T

[1] = all proteins (incl. low confidence identifications)
[2] = proteins identified with >1 peptide (high confidence)

T3 sequence (P06213 28-1382): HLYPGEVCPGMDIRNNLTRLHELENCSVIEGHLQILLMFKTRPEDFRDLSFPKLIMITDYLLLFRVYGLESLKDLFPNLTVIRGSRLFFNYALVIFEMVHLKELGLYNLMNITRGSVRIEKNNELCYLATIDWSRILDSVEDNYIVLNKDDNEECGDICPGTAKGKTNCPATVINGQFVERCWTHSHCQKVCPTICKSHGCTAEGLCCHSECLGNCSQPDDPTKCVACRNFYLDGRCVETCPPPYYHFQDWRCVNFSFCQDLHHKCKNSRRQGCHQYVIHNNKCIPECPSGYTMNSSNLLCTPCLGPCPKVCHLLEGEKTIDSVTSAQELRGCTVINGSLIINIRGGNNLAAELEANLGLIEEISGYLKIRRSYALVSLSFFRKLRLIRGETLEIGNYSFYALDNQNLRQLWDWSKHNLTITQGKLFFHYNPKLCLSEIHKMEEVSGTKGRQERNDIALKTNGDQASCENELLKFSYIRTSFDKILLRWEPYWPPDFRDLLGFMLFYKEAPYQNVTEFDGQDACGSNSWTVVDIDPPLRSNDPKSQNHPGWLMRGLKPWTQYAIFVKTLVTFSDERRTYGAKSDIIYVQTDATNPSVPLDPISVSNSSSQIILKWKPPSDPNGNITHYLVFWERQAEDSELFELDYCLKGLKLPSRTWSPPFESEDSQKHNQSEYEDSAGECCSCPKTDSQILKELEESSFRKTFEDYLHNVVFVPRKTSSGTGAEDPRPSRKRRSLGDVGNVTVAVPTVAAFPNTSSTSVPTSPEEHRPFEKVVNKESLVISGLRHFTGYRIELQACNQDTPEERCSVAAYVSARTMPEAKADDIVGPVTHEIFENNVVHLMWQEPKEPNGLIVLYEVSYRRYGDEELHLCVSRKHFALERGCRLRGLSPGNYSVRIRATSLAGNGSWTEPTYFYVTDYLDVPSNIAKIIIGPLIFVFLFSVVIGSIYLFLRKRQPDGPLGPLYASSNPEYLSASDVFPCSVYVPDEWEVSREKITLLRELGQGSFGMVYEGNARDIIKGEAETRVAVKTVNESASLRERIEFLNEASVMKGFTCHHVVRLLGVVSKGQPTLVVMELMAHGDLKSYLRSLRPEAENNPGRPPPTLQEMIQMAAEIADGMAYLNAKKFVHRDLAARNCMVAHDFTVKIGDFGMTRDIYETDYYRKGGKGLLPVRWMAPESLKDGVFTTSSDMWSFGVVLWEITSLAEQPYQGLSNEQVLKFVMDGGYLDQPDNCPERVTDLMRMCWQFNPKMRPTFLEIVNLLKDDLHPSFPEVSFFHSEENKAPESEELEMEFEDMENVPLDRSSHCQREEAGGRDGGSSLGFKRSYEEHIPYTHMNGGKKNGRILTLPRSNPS
T22 sequence (O43598 whole entry): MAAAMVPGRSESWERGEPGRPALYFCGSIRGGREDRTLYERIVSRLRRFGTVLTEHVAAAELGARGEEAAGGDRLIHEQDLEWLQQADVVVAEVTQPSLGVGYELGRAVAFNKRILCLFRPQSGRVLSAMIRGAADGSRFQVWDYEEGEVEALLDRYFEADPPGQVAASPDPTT
T25 sequence (Q8TEQ6 whole entry): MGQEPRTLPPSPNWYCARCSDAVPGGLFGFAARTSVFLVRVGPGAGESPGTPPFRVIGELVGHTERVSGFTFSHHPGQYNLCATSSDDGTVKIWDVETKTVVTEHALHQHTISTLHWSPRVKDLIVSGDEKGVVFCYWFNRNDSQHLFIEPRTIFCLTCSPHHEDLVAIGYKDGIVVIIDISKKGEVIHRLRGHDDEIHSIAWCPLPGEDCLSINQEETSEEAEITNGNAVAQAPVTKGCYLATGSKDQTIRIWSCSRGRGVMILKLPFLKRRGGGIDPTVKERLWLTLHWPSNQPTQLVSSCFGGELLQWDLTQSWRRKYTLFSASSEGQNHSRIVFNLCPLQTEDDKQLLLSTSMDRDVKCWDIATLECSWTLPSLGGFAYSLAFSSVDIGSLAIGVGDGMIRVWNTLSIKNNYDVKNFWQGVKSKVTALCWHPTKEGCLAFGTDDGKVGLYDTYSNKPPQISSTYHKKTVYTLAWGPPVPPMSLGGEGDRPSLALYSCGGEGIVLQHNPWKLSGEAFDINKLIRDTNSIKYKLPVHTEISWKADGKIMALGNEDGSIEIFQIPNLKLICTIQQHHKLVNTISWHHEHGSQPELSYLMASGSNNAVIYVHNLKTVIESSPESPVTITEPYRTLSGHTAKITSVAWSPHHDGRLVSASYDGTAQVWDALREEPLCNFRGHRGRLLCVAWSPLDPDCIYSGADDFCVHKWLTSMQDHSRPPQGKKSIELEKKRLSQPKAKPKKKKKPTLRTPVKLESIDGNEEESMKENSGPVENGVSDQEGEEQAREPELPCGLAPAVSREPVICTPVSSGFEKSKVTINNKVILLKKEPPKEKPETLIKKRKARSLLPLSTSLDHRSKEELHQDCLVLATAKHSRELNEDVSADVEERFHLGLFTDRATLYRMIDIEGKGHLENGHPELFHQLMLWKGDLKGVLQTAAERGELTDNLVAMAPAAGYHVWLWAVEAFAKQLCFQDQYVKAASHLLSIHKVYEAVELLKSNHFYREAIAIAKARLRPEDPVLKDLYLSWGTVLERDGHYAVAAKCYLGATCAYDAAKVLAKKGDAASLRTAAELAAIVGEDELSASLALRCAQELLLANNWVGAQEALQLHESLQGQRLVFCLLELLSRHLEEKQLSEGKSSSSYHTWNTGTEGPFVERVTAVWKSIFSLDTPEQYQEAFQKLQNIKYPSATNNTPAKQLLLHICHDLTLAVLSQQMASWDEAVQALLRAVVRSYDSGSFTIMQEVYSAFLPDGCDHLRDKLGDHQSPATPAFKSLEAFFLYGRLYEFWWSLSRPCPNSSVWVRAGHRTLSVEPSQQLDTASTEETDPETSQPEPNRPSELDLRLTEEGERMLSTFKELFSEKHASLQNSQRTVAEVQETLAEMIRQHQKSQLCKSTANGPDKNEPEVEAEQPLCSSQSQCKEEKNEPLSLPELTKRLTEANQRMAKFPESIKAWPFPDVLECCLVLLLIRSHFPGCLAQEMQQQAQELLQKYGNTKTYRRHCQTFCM
T9 sequence (P16083 whole entry): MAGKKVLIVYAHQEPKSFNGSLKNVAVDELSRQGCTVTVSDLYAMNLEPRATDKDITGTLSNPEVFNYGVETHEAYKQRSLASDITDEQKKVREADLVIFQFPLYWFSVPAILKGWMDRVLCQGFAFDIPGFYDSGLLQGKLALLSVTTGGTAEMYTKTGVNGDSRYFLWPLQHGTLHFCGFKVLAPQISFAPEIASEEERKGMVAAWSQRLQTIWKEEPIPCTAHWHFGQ
T2 sequence (P08069 31-1367): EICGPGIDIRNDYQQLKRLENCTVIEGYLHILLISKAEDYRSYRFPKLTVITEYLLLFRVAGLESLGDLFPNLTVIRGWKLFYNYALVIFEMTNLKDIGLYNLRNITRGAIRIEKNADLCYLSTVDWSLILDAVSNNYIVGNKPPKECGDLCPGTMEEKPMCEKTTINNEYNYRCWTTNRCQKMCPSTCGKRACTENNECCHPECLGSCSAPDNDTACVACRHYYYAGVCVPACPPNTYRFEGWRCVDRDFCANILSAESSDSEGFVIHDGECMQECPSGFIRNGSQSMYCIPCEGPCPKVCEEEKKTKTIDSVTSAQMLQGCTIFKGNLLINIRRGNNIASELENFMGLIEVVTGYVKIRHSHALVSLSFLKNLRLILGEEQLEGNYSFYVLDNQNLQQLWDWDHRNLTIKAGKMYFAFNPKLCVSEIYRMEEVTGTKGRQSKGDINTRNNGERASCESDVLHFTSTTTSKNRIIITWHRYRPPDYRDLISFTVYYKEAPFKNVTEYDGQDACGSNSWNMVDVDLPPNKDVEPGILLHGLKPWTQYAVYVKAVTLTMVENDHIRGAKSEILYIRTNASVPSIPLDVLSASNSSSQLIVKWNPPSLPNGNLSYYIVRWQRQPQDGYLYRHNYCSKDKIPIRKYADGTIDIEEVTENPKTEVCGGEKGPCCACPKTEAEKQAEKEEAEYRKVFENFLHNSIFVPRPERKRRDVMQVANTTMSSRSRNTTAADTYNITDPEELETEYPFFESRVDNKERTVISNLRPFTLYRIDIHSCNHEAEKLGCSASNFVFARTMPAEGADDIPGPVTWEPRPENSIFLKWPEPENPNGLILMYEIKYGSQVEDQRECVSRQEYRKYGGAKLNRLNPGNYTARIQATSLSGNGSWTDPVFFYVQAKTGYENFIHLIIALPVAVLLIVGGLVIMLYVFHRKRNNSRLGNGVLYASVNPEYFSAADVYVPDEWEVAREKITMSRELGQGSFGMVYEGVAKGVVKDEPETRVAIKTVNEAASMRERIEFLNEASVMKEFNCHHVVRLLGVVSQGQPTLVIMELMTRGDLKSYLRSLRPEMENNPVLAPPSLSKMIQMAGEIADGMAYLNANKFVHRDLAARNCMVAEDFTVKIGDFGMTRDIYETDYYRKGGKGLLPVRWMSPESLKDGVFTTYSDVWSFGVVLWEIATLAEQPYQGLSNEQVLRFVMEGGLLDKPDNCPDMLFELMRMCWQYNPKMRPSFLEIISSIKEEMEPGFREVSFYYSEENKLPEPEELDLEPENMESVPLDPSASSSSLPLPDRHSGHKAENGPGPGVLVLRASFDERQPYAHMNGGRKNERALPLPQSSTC
T5 sequence (Q9HDC9 whole entry): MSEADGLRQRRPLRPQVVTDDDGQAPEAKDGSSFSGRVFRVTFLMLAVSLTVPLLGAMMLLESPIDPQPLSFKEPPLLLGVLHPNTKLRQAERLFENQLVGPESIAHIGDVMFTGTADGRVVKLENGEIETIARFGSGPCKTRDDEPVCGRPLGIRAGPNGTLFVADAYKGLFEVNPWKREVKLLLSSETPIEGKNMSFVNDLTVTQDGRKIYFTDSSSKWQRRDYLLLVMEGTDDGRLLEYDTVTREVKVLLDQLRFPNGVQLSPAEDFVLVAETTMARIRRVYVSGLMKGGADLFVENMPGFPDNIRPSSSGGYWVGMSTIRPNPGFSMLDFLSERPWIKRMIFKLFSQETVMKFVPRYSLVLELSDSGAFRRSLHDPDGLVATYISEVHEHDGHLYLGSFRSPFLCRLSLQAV

Compound: CN(Cc1cnc2nc(N)nc(N)c2n1)c1ccc(C(=O)NC(CCC(=O)NCCOCCOCCOCCOCCOCCn2cc(CN3CCN(c4ccc(Nc5nc(NC6CCCCC6)c6nc[nH]c6n5)cc4)CC3)nn2)C(=O)O)cc1 (stereo not drawn) [MTX-PEG6-reversine]
- Recurrence (x/2) (ZNF827): 1 x/2
- Recurrence (x/2) (HTRA3): 1 x/2
- Recurrence (x/2) (IGF1R; [1]): 2 x/2
- Recurrence (x/2) (IGF1R; [2]): 2 x/2
- Recurrence (x/2) (INSR; [1]): 2 x/2
- Recurrence (x/2) (INSR; [2]): 2 x/2
- Recurrence (x/2) (CTNNA2): 1 x/2
- Recurrence (x/2) (APMAP): 1 x/2
- Recurrence (x/2) (USP7): 1 x/2
- Recurrence (x/2) (NT5C): 1 x/2
- Recurrence (x/2) (GAK): 1 x/2
- Recurrence (x/2) (NQO2; [1]): 2 x/2
- Recurrence (x/2) (NQO2; [2]): 1 x/2
- Recurrence (x/2) (YIPF5): 1 x/2
- Recurrence (x/2) (MFI2): 1 x/2
- Recurrence (x/2) (TMX1): 1 x/2
- Recurrence (x/2) (MBTPS1): 1 x/2
- Recurrence (x/2) (PPM1L): 1 x/2
- Recurrence (x/2) (LMAN1): 1 x/2
- Recurrence (x/2) (FKBP3): 1 x/2
- Recurrence (x/2) (NEK2): 1 x/2
- Recurrence (x/2) (DYNC2H1): 1 x/2
- Recurrence (x/2) (TMEM30A): 1 x/2
- Recurrence (x/2) (CAMKV): 1 x/2
- Recurrence (x/2) (TMEM9): 1 x/2
- Recurrence (x/2) (RCL; [1]): 1 x/2
- Recurrence (x/2) (RCL; [2]): 1 x/2
- Recurrence (x/2) (BZW1): 1 x/2
- Recurrence (x/2) (MST1R): 1 x/2
- Recurrence (x/2) (GEMIN5; [1]): 1 x/2
- Recurrence (x/2) (GEMIN5; [2]): 1 x/2
- Recurrence (x/2) (RPS6KA1): 1 x/2
- Recurrence (x/2) (MYO1D): 1 x/2
